Measured values published in US11135319B2, “Compounds useful as imaging agents of hypoxia” (CENTRE NATIONAL DE LA RECHERCHE SCIENTIFIQUE, priority 2017, dated 2021).

Columns and labels:
[1] = system: rhabdomyosarcoma tumor (hypoxia); assay: In vivo PET (TEP) imaging of hypoxia in the animal rhabdomyosarcoma model; conditions: for SUVMax (average) / SUVMean (average): tumor to muscle
Protocol: The evaluations of the radio-tracers were carried out in the animal rhabdomyosarcoma model provided by Biomedical Magnetic Resonance Research Group (REMA)—Catholic University of Louvain (UCL)—Belgium according to Peeters et al. (Int J Radiat Oncol, 2015) in the comparative study of [^18F]HX-4, [^18F]FMISO and [^18F]FAZA. The in vivo imaging was carried out using an Inveon μTEP/μTDM camera (Siemens). The animals were handled under gaseous anesthesia using isoflurane (induction at 5%, maintenance between 1.5% and 2.5% in 70% N2O/30% O2). The body temperature of the animals was maintained above 37.5° C. while the rate of respiration was constantly monitored, in order to obtain stable anesthesia reproducible from one animal to another. A catheter was placed without surgery (Insight Autoguard 24 Ga) at the caudal vein in order to allow the administration of radio-tracers. TDM acquisition is systematically performed prior to TEP imaging and is used for corrections of attenuation and diffusion of photos as well as for obtaining anatomical data. Acquisitions and reconstructions were performed with a coincidence time of 3.4 ns, an energy window of 350 to 650 keV, the OSEM3D-MAP reconstruction algorithm (respectively 2 and 18 iterations) with the “fastMAP” option, uniform variance and a required resolution of 2.26 mm. 128×128×159 pixels per image, with a voxel size of 0.776×0.776×0.796 mm^3. The images were normalized in SUV (Standardized Uptake Value) and analyzed with the PMOD (3.6 PMODTechnologies) software, by manual delimitation of the volumes of interest (VOIs) “entire tumor” and “muscle” and simultaneously using the 2 imaging modes.
The animals were imaged for 180 consecutive minutes starting with the injection of the radiotracer [^18F]AEL-3156 (23±3 MBq) or [^18F]FMISO (18±3 MBq) coinciding with the beginning of TEP acquisition. The 180 min post-injection time is known to be optimal for this animal model, for obtaining imaging of hypoxia with TEP tracers such as [^18F]FMISO and [^18F]HX4. After TEP imaging and before waking, the animals systematically received an intraperitoneal injection of saline solution (2 mL) in order to rehydrate them.

[2] = Determination of the partition coefficient (n-octanol/H2O, radioactivity counting); assay type: physicochemical; conditions: ambient temperature, average of three measurements, read-out: Log P value
Protocol: Determination of the partition coefficient:
n-Octanol (1 mL) and H2O (1 mL) were mixed for 20 min at ambient temperature before adding 10 μL of radioactively labeled compound. The tube was vigorously agitated by a vortex mixer for 30 min at ambient temperature. Three aliquots of 100 μL were collected from each phase and counted in a Packard Cobra Gamma counter. Log P was calculated as follows: log P=log (concentration of radioactivity in the n-octanol phase/concentration of radioactivity in the aqueous phase). The values provided are an average of the three measurements carried out.

Row | SMILES | SUVMax (average) ([1]; 20-30 min of acquisition) | SUVMean (average) ([1]; 20-30 min of acquisition) | SUVMax (average) ([1]; 40-60 min of acquisition) | SUVMean (average) ([1]; 40-60 min of acquisition) | SUVMax (average) ([1]; 160-180 min of acquisition) | SUVMean (average) ([1]; 160-180 min of acquisition) | tumor to muscle ratio in SUVmax ([1]; at 20-30 min of acquisition) | tumor to muscle ratio in SUVmean ([1]; at 20-30 min of acquisition) | time for which the optimal tumor to muscle ratio remains constant ([1]; post-injection) | logP at 30 min [2] | tumor to muscle ratio, times lower than [^18F]AEL-3156 ([1]; at 20-30 min of acquisition) | time after which the optimal tumor to muscle ratio is achieved ([1]; of acquisition)
1 | O=[N+]([O-])c1nccn1Cn1cc(CC(CCC[18F])S(=O)(=O)O)nn1 (centres unmarked) [[^18F]AEL-3156] | 5.20 | 2.94 | 5.10 | 2.93 | 2.90 | 1.51 | 5 | 3 | at least 60 min | -2.9 | – | –
2 | O=[N+]([O-])c1nccn1CC(O)C[18F] (centres unmarked) [[^18F]FMISO] | 2.04 | 1.00 | 3.64 | 1.45 | 5.42 | 3.42 | 1.7 | 1 | – | – | 3 times | 180 min
